# Test results: patent US20250145601A1, “NOVEL BICYCLIC COMPOUNDS AS RAD51 INHIBITORS” (SATYA THERAPEUTICS, INC., priority 2022, published 2025)
# Tested on: MDA MB 231 cells
# Test: Antiproliferation assay in MDA MB 231 cells (Cell Titer Glo)
# Format: cell-based
# Details: Homo sapiens, MDA-MB-231, 216 h, MDAMB231 cell line, 9 day treatment, racemic compounds (Table 2)
# Procedure: Antiproliferation Assay in MDA MB 231 Cells MDA MB 231 cells were seeded in 96 well plate at a seeding density of 250 cells/well. The cells were allowed to settle overnight under standard incubator conditions (37° C., 5% CO2). Next day treatment with increasing dose of test compounds and reference compounds were done to the respective wells and the cells were further incubated under standard cell culture conditions for another 4 days. On the 5th day, media was replenished with fresh treatment and cells were incubated for a total of 9 day treatment period. On the day of termination, appropriate volume of Cell Titer Glo reagent was added to the treatment (and control) wells and the plates were kept on a plate shaker @300 RPM for 15 min. Luminiscence reading (RLU) was […] RLU is directly proportional to ATP content and is directly related to number of metabolically active cells in the respective well. Calculation: a. Blank Correction: RLU of the Wells Containing No Cells is Considered as Blank and Subtracted from all RLU of the Treated and Control Wells [formula]
row,Structure (SMILES),inhibition at 10 µM [%]
1,"CCC(=O)N1N=C(c2c(C)c3cc(Cl)ccc3[nH]c2=O)CC1c1ccc2ccn(C)c2c1 (centres unmarked) [Example 6, 6-Chloro-4-methyl-3-(5-(1-methyl-1H-indol-6-yl)-1-propionyl-4,5-dihydro-1H-pyrazol-3-yl)quinolin-2(1H)-one]",≥ 50
2,"CCC(=O)N1N=C(c2cc3ccsc3[nH]c2=O)CC1c1ccc(OC)cc1 (centres unmarked) [Example 22, 5-(5-(4-methoxyphenyl)-1-propionyl-4,5-dihydro-1H-pyrazol-3-yl)thieno[2,3-b]pyridin-6(7H)-one]",≥ 50
3,"CCC(=O)N1N=C(c2c(C)c3ccc(N4CCN(C)CC4)cc3[nH]c2=O)CC1c1ccc(C)cc1 (racemic) [Example 82, 4-methyl-7-(4-methylpiperazin-1-yl)-3-(1-propionyl-5-(p-tolyl)-4,5-dihydro-1H-pyrazol-3-yl)quinolin-2(1H)-one]",≥ 50
4,"CCC(=O)N1N=C(c2c(C)c3ccsc3[nH]c2=O)CC1c1cnc(C)s1 (centres unmarked) [Example 57, 4-methyl-5-(5-(2-methylthiazol-5-yl)-1-propionyl-4,5-dihydro-1H-pyrazol-3-yl)thieno[2,3-b]pyridin-6(7H)-one]",≥ 50
5,"CCC(=O)N1N=C(c2c(C)c3cc(Cl)ccc3[nH]c2=O)CC1c1cn(C)c2ccccc12 (centres unmarked) [Example 24, 6-chloro-4-methyl-3-(5-(1-methyl-1H-indol-3-yl)-1-propionyl-4,5-dihydro-1H-pyrazol-3-yl)quinolin-2(1H)-one]",≥ 50
6,"CCC(=O)N1N=C(c2c(C)c3ccsc3[nH]c2=O)CC1c1cc(Br)cs1 (centres unmarked) [Example 34, 5-(5-(4-bromothiophen-2-yl)-1-propionyl-4,5-dihydro-1H-pyrazol-3-yl)-4-methylthieno[2,3-b]pyridin-6(7H)-one]",< 50
7,"CCC(=O)N1N=C(c2c(C)c3ccc(F)cc3[nH]c2=O)CC1c1ccc(C)cc1 (centres unmarked) [Example 83, 7-fluoro-4-methyl-3-(1-propionyl-5-(p-tolyl)-4,5-dihydro-1H-pyrazol-3-yl)quinolin-2(1H)-one]",≥ 50
8,"CCC(=O)N1N=C(c2c(C)c3ccccc3[nH]c2=O)CC1c1ccc(OC)cc1 (centres unmarked) [Example 11, 3-(5-(4-Methoxyphenyl)-1-propionyl-4,5-dihydro-1H-pyrazol-3-yl)-4-methylquinolin-2(1H)-one]",≥ 50
9,"CCC(=O)N1N=C(c2c(C)c3cncnc3[nH]c2=O)CC1c1ccc(OC)cc1 (centres unmarked) [Example 14, 6-(5-(4-Methoxyphenyl)-1-propionyl-4,5-dihydro-1H-pyrazol-3-yl)-5-methylpyrido-[2,3-d]pyrimidin-7(8H)-one]",< 50
10,"CCC(=O)N1N=C(c2c(C)c3ccsc3[nH]c2=O)CC1c1csc(C)n1 (centres unmarked) [Example 48, 4-methyl-5-(5-(2-methylthiazol-4-yl)-1-propionyl-4,5-dihydro-1H-pyrazol-3-yl)thieno[2,3-b]pyridin-6(7H)-one]",< 50
11,"CCC(=O)N1N=C(c2c(C)c3c(Cl)csc3[nH]c2=O)CC1c1ccc(OC)cc1 (centres unmarked) [Example 40, 3-chloro-5-(5-(4-methoxyphenyl)-1-propionyl-4,5-dihydro-1H-pyrazol-3-yl)-4-methylthieno[2,3-b]pyridin-6(7H)-one]",< 50
12,"CCC(=O)N1N=C(c2c(C)c3ccsc3[nH]c2=O)CC1c1ccc(C(C)C)cc1 (centres unmarked) [Example 49, 5-(5-(4-isopropylphenyl)-1-propionyl-4,5-dihydro-1H-pyrazol-3-yl)-4-methylthieno[2,3-b]pyridin-6(7H)-one]",< 50
13,"CCC(=O)N1N=C(c2c(C)c3cc(Br)ccc3[nH]c2=O)CC1c1ccc(OC)cc1 (centres unmarked) [Example 15, 6-bromo-3-(5-(4-methoxyphenyl)-1-propionyl-4,5-dihydro-1H-pyrazol-3-yl)-4-methylquinolin-2(1H)-one]",≥ 50
14,"CCC(=O)N1N=C(c2c(C)c3cc(Cl)ncc3[nH]c2=O)CC1c1ccc(C)cc1 (centres unmarked) [Example 79, 6-chloro-4-methyl-3-(1-propionyl-5-(p-tolyl)-4,5-dihydro-1H-pyrazol-3-yl)-1,7-naphthyridin-2(1H)-one]",≥ 50
15,"CCC(=O)N1N=C(c2c(C)c3cc(Cl)ccc3[nH]c2=O)CC1c1ccc(OC)nc1 (centres unmarked) [Example 7, 6-chloro-3-(5-(6-methoxypyridin-3-yl)-1-propionyl-4,5-dihydro-1H-pyrazol-3-yl)-4-methylquinolin-2(1H)-one]",≥ 50
16,"COc1ccc(C2CC(c3c(C)c4cc(Cl)ccc4[nH]c3=O)=NN2C(=O)C2CCOCC2)cc1 (centres unmarked) [Example 3, 6-chloro-3-(5-(4-methoxyphenyl)-1-(tetrahydro-2H-pyran-4-carbonyl)-4,5-dihydro-1H-pyrazol-3-yl)-4-methylquinolin-2(1H)-one]",≥ 50
17,"CCC(=O)N1N=C(c2c(C)c3ccsc3[nH]c2=O)CC1c1ccc(OC)cn1 (centres unmarked) [Example 25, 5-(5-(5-methoxypyridin-2-yl)-1-propionyl-4,5-dihydro-1H-pyrazol-3-yl)-4-methylthieno[2,3-b]pyridin-6(7H)-one]",< 50
18,"CCC(=O)N1N=C(c2c(C)c3cnccc3[nH]c2=O)CC1c1ccc(C)cc1 (centres unmarked) [Example 85, 4-methyl-3-(1-propionyl-5-(p-tolyl)-4,5-dihydro-1H-pyrazol-3-yl)-1,6-naphthyridin-2(1H)-one]",≥ 50
19,"CCC(=O)N1N=C(c2c(C)c3cc(Cl)cnc3[nH]c2=O)CC1c1ccc(C)cc1 (centres unmarked) [Example 67, 6-chloro-4-methyl-3-(1-propionyl-5-(p-tolyl)-4,5-dihydro-1H-pyrazol-3-yl)-1,8-naphthyridin-2(1H)-one]",< 50
20,"CCC(=O)N1N=C(c2c(C)c3ccsc3[nH]c2=O)CC1c1ccncc1 (centres unmarked) [Example 35, 4-methyl-5-(1-propionyl-5-(pyridin-4-yl)-4,5-dihydro-1H-pyrazol-3-yl)thieno[2,3-b]pyridin-6(7H)-one]",< 50
21,"CCC(=O)N1N=C(c2c(C)c3ccnc(C)c3[nH]c2=O)CC1c1ccc(C)cc1 (racemic) [Example 78, 4,8-dimethyl-3-(1-propionyl-5-(p-tolyl)-4,5-dihydro-1H-pyrazol-3-yl)-1,7-naphthyridin-2(1H)-one]",≥ 50
22,"CCC(=O)N1N=C(c2c(C)c3ccccc3[nH]c2=O)CC1c1cn(C)c2ccccc12 (centres unmarked) [Example 12, 4-Methyl-3-(5-(1-methyl-1H-indol-3-yl)-1-propionyl-4,5-dihydro-1H-pyrazol-3-yl)quinolin-2(1H)-one]",≥ 50
23,"CCC(=O)N1N=C(c2c(C)c3ccsc3[nH]c2=O)CC1c1cnc(OC)s1 (centres unmarked) [Example 30, 5-(5-(2-methoxythiazol-5-yl)-1-propionyl-4,5-dihydro-1H-pyrazol-3-yl)-4-methylthieno[2,3-b]pyridin-6(7H)-one]",≥ 50
24,"CCC(=O)N1N=C(c2c(C)c3ccsc3[nH]c2=O)CC1c1cnc(C)c(F)c1 (centres unmarked) [Example 55, 5-(5-(5-fluoro-6-methylpyridin-3-yl)-1-propionyl-4,5-dihydro-1H-pyrazol-3-yl)-4-methylthieno[2,3-b]pyridin-6(7H)-one]",≥ 50
25,"CCC(=O)N1N=C(c2c(C)c3ccsc3[nH]c2=O)CC1c1ccc(N2CCCC2)cc1 (centres unmarked) [Example 46, 4-methyl-5-(1-propionyl-5-(4-(pyrrolidin-1-yl)phenyl)-4,5-dihydro-1H-pyrazol-3-yl)thieno[2,3-b]pyridin-6(7H)-one]",≥ 50
26,"CCC(=O)N1N=C(c2c(C)c3ccsc3[nH]c2=O)CC1c1ccc(C)cc1 (racemic) [Example 37, 4-methyl-5-(1-propionyl-5-(p-tolyl)-4,5-dihydro-1H-pyrazol-3-yl)thieno[2,3-b]pyridin-6(7H)-one]",≥ 50
27,"CCC(=O)N1N=C(c2c(C)c3ccsc3[nH]c2=O)CC1c1ccc(OC)nc1 (centres unmarked) [Example 21, 5-(5-(6-methoxypyridin-3-yl)-1-propionyl-4,5-dihydro-1H-pyrazol-3-yl)-4-methylthieno[2,3-b]pyridin-6(7H)-one]",≥ 50
28,"COc1ccc(C2CC(c3c(C)c4cc(Cl)ccc4[nH]c3=O)=NN2C)cc1 (centres unmarked) [Example 5, 6-Chloro-3-(5-(4-methoxyphenyl)-1-methyl-4,5-dihydro-1H-pyrazol-3-yl)-4-methylquinolin-2(1H)-one]",< 50
29,"CCC(=O)N1N=C(c2c(C)c3cc(Cl)sc3[nH]c2=O)CC1c1ccc(C)cc1 (centres unmarked) [Example 72, 2-chloro-4-methyl-5-(1-propionyl-5-(p-tolyl)-4,5-dihydro-1H-pyrazol-3-yl)thieno[2,3-b]pyridin-6(7H)-one]",≥ 50

# Same assay, conditions: Homo sapiens, MDA-MB-231, 216 h, MDAMB231 cell line, 9 day treatment, separated enantiomers A/B (Table 3)
row,Structure (SMILES),inhibition at 10 µM [%]
1,"CCC(=O)N1N=C(c2c(C)c3ccc(N4CCN(C)CC4)cc3[nH]c2=O)CC1c1ccc(C)cc1 (single isomer, unassigned) [Example 82A]",≥ 50
2,"CCC(=O)N1N=C(c2c(C)c3ccsc3[nH]c2=O)CC1c1ccc(Cl)cc1 (single isomer, unassigned) [Example 28B]",≥ 50
3,"CCC(=O)N1N=C(c2c(C)c3ccsc3[nH]c2=O)CC1c1ccsc1 (single isomer, unassigned) [Example 33B]",< 50
4,"CCC(=O)N1N=C(c2c(C)c3ccsc3[nH]c2=O)CC1c1ccc(C)cc1 (single isomer, unassigned) [Example 37B]",≥ 50
5,"CCC(=O)N1N=C(c2c(C)c3ccnc(C)c3[nH]c2=O)CC1c1ccc(C)cc1 (single isomer, unassigned) [Example 78A]",< 50

# Same assay, conditions: MDAMB231 cell line, 9 day treatment, separated enantiomers A/B (Table 3), 10 µM
row,Structure (SMILES),% inhibition @ 10 μM
1,"CCC(=O)N1N=C(c2c(C)c3ccnc(C)c3[nH]c2=O)CC1c1ccc(C)cc1 (single isomer, unassigned) [Example 78B]",+ (≥50% +)
